Experimental data taken from ChEMBL document CHEMBL5096208, “Installation of Pargyline, a LSD1 Inhibitor, in the HDAC Inhibitory Template Culminated in the Identification of a Tractable Antiprostate Cancer Agent” (J Med Chem, 2021).
The source made the active and inactive calls. No cut-off for these calls is given here.

What was measured:
[1] = tested on: PC-3; assay: Antiproliferative activity against human PC-3 cells assessed as cell growth inhibition incubated for 48 hrs by MTT assay; type: functional
[2] = tested on: DU-145; assay: Antiproliferative activity against human DU-145 cells assessed as cell growth inhibition incubated for 48 hrs by MTT assay; type: functional
[3] = tested on: DU-145; assay: Antitumor activity against human DU-145 cells xenografted in athymic nude mouse assessed as tumor growth inhibition at 20 mg/kg, ip administered every 4 days for 5 doses and measured upto 60 days by caliper method relative to control; type: functional; conditions: DU-145, 1440 h, time <= 60 day, read-out: TGI
[4] = tested on: PC-3; assay: Antitumor activity against human PC-3 cells xenografted in athymic nude mouse assessed as tumor growth inhibition at 20 mg/kg, ip administered every 4 days for 4 doses and measured upto 25 days by caliper method relative to control; type: functional; conditions: PC-3, 600 h, time <= 25 day, read-out: TGI
[5] = Toxicity in athymic nude mouse xenografted with human DU-145 cells assessed as change in body weight at 20 mg/kg, ip administered every 4 days for 5 doses and measured upto 60 days; type: organism-based; conditions: in vivo, 1440 h, time < 60 day
[6] = Toxicity in athymic nude mouse xenografted with human DU-145 cells assessed as change in body weight at 100 to 200 mg/kg, po administered every 2 days and measured upto 60 days; type: organism-based; conditions: in vivo, 1440 h, dose 100-200 mg/kg, time < 60 day
[7] = Toxicity in athymic nude mouse xenografted with human PC-3 cells assessed as change in body weight at 20 mg/kg, ip administered every 4 days for 4 doses and measured upto 25 days; type: organism-based; conditions: in vivo, 600 h, time < 25 day
[8] = Toxicity in athymic nude mouse xenografted with human DU-145 cells assessed as change in body weight at 50 mg/kg, po qd measured upto 60 days; type: organism-based; conditions: in vivo, 1440 h, time < 60 day
[9] = Toxicity in athymic nude mouse xenografted with human PC-3 cells assessed as change in body weight at 50 to 100 mg/kg, po qd measured upto 25 days; type: organism-based; conditions: in vivo, 600 h, dose 50-100 mg/kg, time < 25 day
[10] = tested on: PC-3; assay: Antiproliferative activity against human PC-3 cells assessed as cell growth inhibition at upto 10 uM; type: functional, cell-based; conditions: time 48.0 hrs

GI50 [1]	GI50 [2]	SMILES	also measured
0.75 µM	0.56 µM	C#CCN(C)Cc1ccc(NCc2ccc(/C=C/C(=O)NO)cc2)cc1	
1.79 µM	2.94 µM	C#CCN(C)Cc1cccc(NC(=O)CCCCCCCCC(=O)NO)c1	
		CC(=O)O[C@H]1C(=O)[C@@]2(C)[C@H]([C@H](OC(=O)c3ccccc3)[C@]3(O)C[C@H](OC(=O)[C@H](O)[C@@H](NC(=O)c4ccccc4)c4ccccc4)C(C)=C1C3(C)C)[C@]1(OC(C)=O)CO[C@@H]1C[C@@H]2O [PACLITAXEL]	inhibition in vivo at 20 mg/kg [3]: 47%; inhibition in vivo at 20 mg/kg [4]: 47.8%; Activity [5]: Non-Toxic; Activity [6]: Non-Toxic; Activity [7]: Non-Toxic; Activity [8]: Non-Toxic; Activity [9]: Non-Toxic
1.23 µM	0.21 µM	C#CCN(C)Cc1cccc(NS(=O)(=O)c2cccc(/C=C/C(=O)NO)c2)c1	
> 10 µM	> 10 µM	CNC(=O)c1ccc(N2C(=S)N(c3ccc(C#N)c(C(F)(F)F)c3)C(=O)C2(C)C)cc1F [ENZALUTAMIDE]	
> 10 µM	> 10 µM	C#CCN(C)Cc1ccc(NC(=O)CCCC(=O)NO)cc1	
		Cn1cc(-c2ccc(S(=O)(=O)n3ccc(/C=C/C(=O)Nc4ccccc4N)c3)cc2)cn1	Activity [10]: Active
4.26 µM	2.74 µM	C#CCN(C)Cc1ccc(NC(=O)CCCCCCCCC(=O)NO)cc1	
> 10 µM	> 10 µM	C#CCN(C)Cc1ccc(NC(=O)CCCCC(=O)NO)cc1	
7.16 µM	3.4 µM	C#CCN(C)Cc1ccc(NC(=O)CCCCCCCC(=O)NO)cc1	
5.15 µM	9.75 µM	C#CCN(C)Cc1cccc(NC(=O)CCCCC(=O)NO)c1	
> 10 µM	> 10 µM	C#CCN(C)Cc1ccc(NCc2ccc(C(=O)NO)cc2)cc1	
> 10 µM	> 10 µM	C#CCN(C)Cc1cccc(NCc2ccc(C(=O)NO)cc2)c1	
		Nc1ccccc1NC(=O)c1ccc(CCCC(=O)Nc2ccc([C@H]3C[C@@H]3N)cc2)cc1	Activity [10]: Active
> 10 µM	> 10 µM	C#CCN(C)Cc1ccc(NC(=O)CCC(=O)NO)cc1	
> 10 µM	> 10 µM	C#CCN(C)Cc1cccc(NC(=O)CCC(=O)NO)c1	
2.23 µM	2.35 µM	C#CCN(C)Cc1cccc(NS(=O)(=O)c2ccc(/C=C/C(=O)NO)cc2)c1	
4.63 µM	4.29 µM	C#CCN(C)Cc1cccc(NC(=O)CCCCCC(=O)NO)c1	
4.07 µM	3.78 µM	C#CCN(C)Cc1cccc(NC(=O)CCCCCCCC(=O)NO)c1	
2.28 µM	1.51 µM	C#CCN(C)Cc1ccc(NC(=O)CCCCCCC(=O)NO)cc1	
> 10 µM	> 10 µM	C[C@]12CC[C@H](O)CC1=CC[C@@H]1[C@@H]2CC[C@]2(C)C(c3cccnc3)=CC[C@@H]12 [ABIRATERONE]	
> 10 µM	> 10 µM	C#CCN(C)Cc1ccc(NC(=O)CCCCCC(=O)NO)cc1	
0.85 µM	0.54 µM	C#CCN(C)Cc1cccc(NCc2ccc(/C=C/C(=O)NO)cc2)c1	
0.367 µM	0.21 µM	C#CCN(C)Cc1ccc(NS(=O)(=O)c2cccc(/C=C/C(=O)NO)c2)cc1	
0.71 µM	0.96 µM	C#CCN(C)Cc1ccc(NS(=O)(=O)c2ccc(/C=C/C(=O)NO)cc2)cc1	
> 10 µM	> 10 µM	C#CCN(C)Cc1cccc(NC(=O)CCCC(=O)NO)c1	

SMILES	GI50 [1]	GI50 [2]	also measured
C#CCN(C)Cc1ccccc1 [PARGYLINE]	197 µM	219 µM	
